This note sets out measurements from the supplement of paper PMC10477900.

Structures can show the parent of a compound that is named as a salt.

In test [1] the test system is HCT116. The following applies: 72 h. As to the method:
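HCT116 control and MTA1-KO (CRISPR) HCT116 cells were seeded in 384-well plates (800 cells/well), treated 16 h later with 237 metabolism-related anticancer drugs at five doses (10 uM, 2 uM, 400 nM, 80 nM, 16 nM) for 72 h, two replicates; viability by CCK8. Values are % inhibition of viability relative to untreated cells, plus fitted IC50.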

Test [2] concerns HCT116. Put plainly: viability inhibition vs untreated; higher = more cytotoxic. The following applies: 72 h.

In the case of `Nc1nc2[nH]cc(CCc3ccc(C(=O)N[C@@H](CCC(=O)O)C(=O)O)cc3)c2c(=O)[nH]1` [Pemetrexed disodium], the IC50 (usually the concentration at which inhibition is half-maximal) with HCT116 [1] (genotype: MTA1-KO) was over 10 µM; in the test with HCT116 [1] (genotype: control) it was 1.18 µM. Moreover, the viability inhibition in the test on HCT116 [2] (genotype: MTA1-KO, 16 nM) was -3.16%; in the test on HCT116 [2] (genotype: MTA1-KO, 80 nM) it was 1.56%; in the test on HCT116 [2] (genotype: MTA1-KO, 400 nM), 17.8%; in the test with HCT116 [2] (genotype: MTA1-KO, 2000 nM), 28.6%; with HCT116 [2] (genotype: MTA1-KO, 10000 nM), 32.9%; in the test with HCT116 [2] (genotype: control, 16 nM), 21.1%. In addition, the viability inhibition in the test on HCT116 [2] (genotype: control, 80 nM) came out at 13.2%; in the test with HCT116 [2] (genotype: control, 400 nM), 10.5%; in the test on HCT116 [2] (genotype: control, 2000 nM), 70.6%; with HCT116 [2] (genotype: control, 10000 nM), 69.4%.
As to `NC(N)=NC(N)=NCCc1ccccc1` [Phenformin hydrochloride], the IC50 in the test on HCT116 [1] (genotype: MTA1-KO) and in the test on HCT116 [1] (genotype: control) was over 10 µM throughout. Further, the viability inhibition in the test on HCT116 [2] (genotype: MTA1-KO, 16 nM) is -11.4%; with HCT116 [2] (genotype: MTA1-KO, 80 nM) it was -9.26%; in the test on HCT116 [2] (genotype: MTA1-KO, 400 nM), -10.6%; with HCT116 [2] (genotype: MTA1-KO, 2000 nM), -4.27%; in the test on HCT116 [2] (genotype: MTA1-KO, 10000 nM), 20.1%; in the test with HCT116 [2] (genotype: control, 16 nM) it was 12.5%. For the same compound, the viability inhibition in the test with HCT116 [2] (genotype: control, 80 nM) was 18.4%; in the test with HCT116 [2] (genotype: control, 400 nM), 9.46%; in the test on HCT116 [2] (genotype: control, 2000 nM), 8.84%; in the test with HCT116 [2] (genotype: control, 10000 nM) it was 42.4%.
In the case of `Cc1ccc(C(=O)Cn2c3c(sc2=N)CCCC3)cc1` [Pifithrin-α], the concentration for half-maximal inhibition (IC50) with HCT116 [1] (genotype: MTA1-KO) and with HCT116 [1] (genotype: control) was over 10 µM throughout. For the same compound, the viability inhibition is -1.55% in the test on HCT116 [2] (genotype: MTA1-KO, 16 nM); -3.09% with HCT116 [2] (genotype: MTA1-KO, 80 nM); -7.19% in the test on HCT116 [2] (genotype: MTA1-KO, 400 nM); 3.88% with HCT116 [2] (genotype: MTA1-KO, 2000 nM); 32% with HCT116 [2] (genotype: MTA1-KO, 10000 nM); 9.06% with HCT116 [2] (genotype: control, 16 nM). In addition, the viability inhibition with HCT116 [2] (genotype: control, 80 nM) came to 2.07%; with HCT116 [2] (genotype: control, 400 nM) it was 21.3%; in the test on HCT116 [2] (genotype: control, 2000 nM), 9.85%; with HCT116 [2] (genotype: control, 10000 nM) it was 22.1%.
As to `Cc1ccc(-c2cn3c4c(sc3n2)CCCC4)cc1` [Pifithrin-β hydrobromide], the IC50 with HCT116 [1] (genotype: MTA1-KO) and in the test on HCT116 [1] (genotype: control) was over 10 µM throughout. The viability inhibition in the test with HCT116 [2] (genotype: MTA1-KO, 16 nM) was -6.36%; with HCT116 [2] (genotype: MTA1-KO, 80 nM), -17.5%; in the test with HCT116 [2] (genotype: MTA1-KO, 400 nM), -18.2%; in the test on HCT116 [2] (genotype: MTA1-KO, 2000 nM), -13.4%; in the test on HCT116 [2] (genotype: MTA1-KO, 10000 nM) it was 33%; in the test with HCT116 [2] (genotype: control, 16 nM) it was -6.38%. For the same compound, the viability inhibition was -10.8% in the test with HCT116 [2] (genotype: control, 80 nM); -7.66% in the test with HCT116 [2] (genotype: control, 400 nM); 2.45% with HCT116 [2] (genotype: control, 2000 nM); -13.6% with HCT116 [2] (genotype: control, 10000 nM).
In the case of `NS(=O)(=O)C#Cc1ccccc1` [Pifithrin-μ], the IC50 with HCT116 [1] (genotype: MTA1-KO) and with HCT116 [1] (genotype: control) was over 10 µM in each case. The viability inhibition was -6.33% in the test on HCT116 [2] (genotype: MTA1-KO, 16 nM); -6.69% in the test with HCT116 [2] (genotype: MTA1-KO, 80 nM); -11.6% with HCT116 [2] (genotype: MTA1-KO, 400 nM); -13.4% in the test on HCT116 [2] (genotype: MTA1-KO, 2000 nM); -5.71% in the test on HCT116 [2] (genotype: MTA1-KO, 10000 nM); 12.9% with HCT116 [2] (genotype: control, 16 nM). The viability inhibition was -14.1% with HCT116 [2] (genotype: control, 80 nM); -16.5% with HCT116 [2] (genotype: control, 400 nM); -18.1% in the test on HCT116 [2] (genotype: control, 2000 nM); 20.2% in the test with HCT116 [2] (genotype: control, 10000 nM).
Take `O=C(O)C[C@H](O)C[C@H](O)/C=C/c1c(C2CC2)nc2ccccc2c1-c1ccc(F)cc1` [Pitavastatin calcium]: the IC50 is over 10 µM in the test with HCT116 [1] (genotype: MTA1-KO) and 3.1 µM with HCT116 [1] (genotype: control). The viability inhibition in the test with HCT116 [2] (genotype: MTA1-KO, 16 nM) is -24.4%; in the test with HCT116 [2] (genotype: MTA1-KO, 80 nM) it was -25.7%; in the test with HCT116 [2] (genotype: MTA1-KO, 400 nM) it was -30.7%; with HCT116 [2] (genotype: MTA1-KO, 2000 nM), -23.8%; in the test on HCT116 [2] (genotype: MTA1-KO, 10000 nM), 31%; in the test on HCT116 [2] (genotype: control, 16 nM), 11%. Moreover, the viability inhibition was -0.547% in the test on HCT116 [2] (genotype: control, 80 nM); -0.73% in the test on HCT116 [2] (genotype: control, 400 nM); 5.9% in the test with HCT116 [2] (genotype: control, 2000 nM); 75.5% with HCT116 [2] (genotype: control, 10000 nM).
Consider `C#CCC(Cc1cnc2nc(N)nc(N)c2n1)c1ccc(C(=O)N[C@@H](CCC(=O)O)C(=O)O)cc1` (stereo not given in full) [Pralatrexate], for which the IC50 is 0.022 µM with HCT116 [1] (genotype: MTA1-KO) and under 0.016 µM in the test with HCT116 [1] (genotype: control). Also, the viability inhibition in the test on HCT116 [2] (genotype: MTA1-KO, 16 nM) stood at 37.5%; in the test on HCT116 [2] (genotype: MTA1-KO, 80 nM) it was 71.4%; with HCT116 [2] (genotype: MTA1-KO, 400 nM), 71.7%; in the test on HCT116 [2] (genotype: MTA1-KO, 2000 nM), 75%; in the test on HCT116 [2] (genotype: MTA1-KO, 10000 nM), 77.3%; in the test on HCT116 [2] (genotype: control, 16 nM) it was 52.4%. Further, the viability inhibition is 77.9% with HCT116 [2] (genotype: control, 80 nM); 78.8% in the test with HCT116 [2] (genotype: control, 400 nM); 80.6% in the test on HCT116 [2] (genotype: control, 2000 nM); 79.1% in the test on HCT116 [2] (genotype: control, 10000 nM).
Take `CC[C@H](C)C(=O)O[C@H]1C[C@H](O)C=C2C=C[C@H](C)[C@H](CC[C@@H](O)C[C@@H](O)CC(=O)O)[C@H]21` [Pravastatin sodium]: the IC50 in the test with HCT116 [1] (genotype: MTA1-KO) and with HCT116 [1] (genotype: control) was over 10 µM in each case. Moreover, the viability inhibition is 9.21% with HCT116 [2] (genotype: MTA1-KO, 16 nM); -16.3% with HCT116 [2] (genotype: MTA1-KO, 80 nM); -12.8% in the test on HCT116 [2] (genotype: MTA1-KO, 400 nM); -12.2% in the test on HCT116 [2] (genotype: MTA1-KO, 2000 nM); -1.55% in the test with HCT116 [2] (genotype: MTA1-KO, 10000 nM); 10.2% in the test with HCT116 [2] (genotype: control, 16 nM). Also, the viability inhibition with HCT116 [2] (genotype: control, 80 nM) is -15.3%; in the test with HCT116 [2] (genotype: control, 400 nM) it was -11.6%; with HCT116 [2] (genotype: control, 2000 nM), -6.15%; with HCT116 [2] (genotype: control, 10000 nM), 6.05%.
With `CC(=O)OCC(=O)[C@@]1(O)CC[C@H]2[C@@H]3CCC4=CC(=O)C=C[C@]4(C)[C@H]3[C@@H](O)C[C@@]21C` [Prednisolone-21-acetate], the IC50 in the test on HCT116 [1] (genotype: MTA1-KO) and in the test with HCT116 [1] (genotype: control) was over 10 µM each time. The viability inhibition in the test on HCT116 [2] (genotype: MTA1-KO, 16 nM) is -12.5%; with HCT116 [2] (genotype: MTA1-KO, 80 nM), -14%; with HCT116 [2] (genotype: MTA1-KO, 400 nM), -3.35%; in the test on HCT116 [2] (genotype: MTA1-KO, 2000 nM) it was -0.355%; in the test with HCT116 [2] (genotype: MTA1-KO, 10000 nM), -5.46%; in the test with HCT116 [2] (genotype: control, 16 nM), -5.13%. The viability inhibition in the test on HCT116 [2] (genotype: control, 80 nM) was -7.24%; with HCT116 [2] (genotype: control, 400 nM) it was -8.51%; with HCT116 [2] (genotype: control, 2000 nM), -7.3%; in the test on HCT116 [2] (genotype: control, 10000 nM), -12.1%.
As to `CC(C)(Sc1cc(C(C)(C)C)c(O)c(C(C)(C)C)c1)Sc1cc(C(C)(C)C)c(O)c(C(C)(C)C)c1` [Probucol], the IC50 in the test on HCT116 [1] (genotype: MTA1-KO) and with HCT116 [1] (genotype: control) was over 10 µM each time. The viability inhibition in the test with HCT116 [2] (genotype: MTA1-KO, 16 nM) was -5.9%; in the test with HCT116 [2] (genotype: MTA1-KO, 80 nM), -11%; in the test with HCT116 [2] (genotype: MTA1-KO, 400 nM) it was -1.83%; in the test with HCT116 [2] (genotype: MTA1-KO, 2000 nM), -5.06%; in the test with HCT116 [2] (genotype: MTA1-KO, 10000 nM) it was -0.265%; in the test with HCT116 [2] (genotype: control, 16 nM), 6.44%. Besides, the viability inhibition in the test with HCT116 [2] (genotype: control, 80 nM) is 11.6%; with HCT116 [2] (genotype: control, 400 nM) it was -2.62%; with HCT116 [2] (genotype: control, 2000 nM), 16.6%; with HCT116 [2] (genotype: control, 10000 nM), 9.78%.
